The values that follow come from patent US6399356B1, “Process and agent for sanitation of contaminations caused by viruses” (priority 1998, dated 2002).

Structures are written as SMILES.

Assay [1] concerns non-cytopathogenic pestivirus strain in MDBK cell culture. Description: Sanitization of a cell culture: titration of cytopathogenic BVDV strain on treated MDBK indicator cells. In kind it is cell-based. As to the method:
The infection of the cell culture can be followed, inter alia, by the (fetal) calf serum necessary for cell culture.
An MDBK cell culture which is infected with a non-cytopathogenic pestivirus strain is passaged as is customary (splitting rate 1:5; Eagles Minimal Essential Medium containing 5% FCS) and two cell culture flasks are prepared. One cell culture flask remains untreated, the second cell culture flask is treated with thymol (1:50,000). Both cell culture flasks are passaged weekly, the treatment of the cell culture being carried out for 3 passages. After one passage without treatment, cells from the respective cell culture flasks are inoculated into microtiter plates and a titration (end point dilution method) of a cytopathogenic BVDV strain (Denmark) is carried out on the respective indicator cells. The cytopathogenic effect is evaluated as an indication of virus replication and the virus titer is calculated (Spaerman-Kärber method; Table 2).
In general terms: Protection from cytopathic effect is a common read-out in antiviral testing.

Assay [2] deals with reo-3-virus. Description: Sanitization of a DEAE-Sephadex chromatography column contaminated with virus. As to the method:
1 g of DEAE-Sephadex A-50 (pre-swollen) was added as a slurry in 20 ml of PBS (pH 7.2) to 500 ml of a reo-3-virus-containing aqueous solution (cell culture supernatant with 5% FCS) having a virus titer (CCID50) of 5.5 log10. After stirring for 30 min at approximately 20° C., all the material was transferred to a chromatography column and, after sedimentation of the resin, the column was emptied. The resin was then washed with 150 ml of wash buffer (0.2 M NaCl, pH 6.0 by means of KH2PO4/NaOH) and finally eluted with elution buffer (2.0 M NaCl, pH 8.0 by means of KH2PO4/NaOH). For sanitization, the column was washed (in countercurrent) with 3 column volumes of a wash buffer containing carvacrol solution (1:2000) and allowed to stand overnight at approximately 20° C. under this carvacrol solution. The column was then regenerated with wash buffer.

Setting [3] is: carvacrol solution (1:2000) after about 16 hours' incubation at approximately 20° C. (12 ml).
The mark [4] stands for this setting: wash buffer after sanitation with carvacrol, 2nd column volume (12 ml).

With `Cc1ccc(C(C)C)c(O)c1` [thymol], the “Virus titer of cytopathogenic BVDV strain (Denmark) on the indicator cells” value in assay [1] (MDBK cells infected with non-cytopathogenic pestivirus, 3 passages treated with thymol (1:50,000), then one passage without treatment, untreated 3.9, starting culture 4.3) was 7.6 (CCID50ml) [log10]. For the same compound, the “Inactivation of non-cytopathogenic pestivirus in MDBK cells” value in assay [1] (thymol (1:50,000), 3 passages) was “the non-cytopathogenic pestivirus is inactivated”.

As to `Cc1ccc(C(C)C)cc1O` [Carvacrol solution, carvacrol], the “Virus load (Titer × volume)” value in assay [2] (setting [3]) was “≦2.6 [log10]”; in assay [2] (carvacrol solution (1:2000), 1st column volume (12 ml), determined immediately after obtaining the sample, starting material 8.2), 5.3 [log10]; in assay [2] (setting [4]), “≦2.6 [log10]”. For the same compound, the Virus titer result was “≦1.5 CCID50/ml[log10]” in assay [2] (setting [3]); 4.2 CCID50/ml[log10] in assay [2] (carvacrol solution (1:2000) in wash buffer, 1st column volume (12 ml), titer determined immediately after obtaining the sample, starting material 5.5); “≦1.5 CCID50/ml[log10]” in assay [2] (setting [4]). In assay [2] (sanitization of DEAE-Sephadex column with carvacrol solution (1:2000) overnight), the “Inactivation of reo-3-virus on the column” value is given as “complete inactivation of reo-3-virus below the detection limit”.
